Laboratory results as given in US20070066483A1, “Plant Nourishing” (priority 2004, published 2007).

System: carnations
Assay: Preservation of cut carnations in vases of distilled water with one additive each
Assay type: in vivo
Details: one cut carnation per vase, one teaspoon of additive in 1 cup distilled water; for order in which the flowers collapsed: collapsed = flower fell to a side of the stem
Method: The materials in the experiment used included seven vases; one cutting knife; one teaspoon each of lemon-lime soda, sugar, aspirin, house bleach, vitamins, a sports drink, including citric acid, potassium, sodium, sugar and water, eight cups of warm distilled water, and seven fresh carnations Each of the seven vases were filled with 1 cup of distilled water. One teaspoon of each additive was added to its own separate vase of distilled water. One vase only contained distilled water because it was used as the control group. Each carnation was cut on the end at a slant. […] Referring to FIG. 3, the conditions of each flower were recorded after every 24-hour period on a scale from “1” to “10.” Scores between “7” to “10” are “good,” scores between “4” to “6” are “fair,” and scores between “0” to “3” are poor. […] A flower was “collapsed” when it decayed to a point where the flower 14 fell to a side of the stem 18. Aspirin is recommended to preserve flowers by many florists because it lowers the PH level of water, making it more acidic. Acid helps water move more easily up the tubes in a flower's stem 18. However, some florists argue that aspirin can damage flowers, which this experiment supported. Bleach was used in the experiment because bleach kills bacteria, which is harmful to flowers. However, the bleach and water solution only preserved its flower for ten out of nineteen days. […] The carnation with vitamins and water solution may have collapsed because of bacteria growth that developed in the vase. The control group (water only) preserved its carnation for an average length of thirteen days. […] All three solutions contained sugar, a vital substance needed by plants to carry out photosynthesis. The flower with the lemon lime soda lasted for sixteen days, and the flower with sugar lasted for eighteen days. The sports drink and water was the solution that preserved its flower the longest, approximately twenty-nine days.

Row | Molecule | order in which the flowers collapsed | time the flower was preserved (until collapse) (condition recorded every 24 hours)
1 | CC(=O)Oc1ccccc1C(=O)O [aspirin] | first flowers to collapse | –
2 | sugar | last three flowers to remain fresh | eighteen
